Results from ChEMBL document CHEMBL4043268 (Bioorg Med Chem, 2017).
The source made the active and inactive calls. The rule behind the calls is not given here.

Tests used:
Cholinesterase [1] = target: T1, Cholinesterase (Equus caballus, UniProt P81908)
Description: Inhibition of equine serum BChE using butyrylthiocholine iodide as substrate preincubated for 10 mins followed by substrate addition by Ellman's method

Acetylcholinesterase [2] = target: T2, Acetylcholinesterase (Homo sapiens, UniProt P22303); assay: Inhibition of human erythrocyte AChE at 20 uM using acetylthiocholine iodide as substrate preincubated for 10 mins followed by substrate addition Ellman's method
T2 sequence (P22303 whole entry): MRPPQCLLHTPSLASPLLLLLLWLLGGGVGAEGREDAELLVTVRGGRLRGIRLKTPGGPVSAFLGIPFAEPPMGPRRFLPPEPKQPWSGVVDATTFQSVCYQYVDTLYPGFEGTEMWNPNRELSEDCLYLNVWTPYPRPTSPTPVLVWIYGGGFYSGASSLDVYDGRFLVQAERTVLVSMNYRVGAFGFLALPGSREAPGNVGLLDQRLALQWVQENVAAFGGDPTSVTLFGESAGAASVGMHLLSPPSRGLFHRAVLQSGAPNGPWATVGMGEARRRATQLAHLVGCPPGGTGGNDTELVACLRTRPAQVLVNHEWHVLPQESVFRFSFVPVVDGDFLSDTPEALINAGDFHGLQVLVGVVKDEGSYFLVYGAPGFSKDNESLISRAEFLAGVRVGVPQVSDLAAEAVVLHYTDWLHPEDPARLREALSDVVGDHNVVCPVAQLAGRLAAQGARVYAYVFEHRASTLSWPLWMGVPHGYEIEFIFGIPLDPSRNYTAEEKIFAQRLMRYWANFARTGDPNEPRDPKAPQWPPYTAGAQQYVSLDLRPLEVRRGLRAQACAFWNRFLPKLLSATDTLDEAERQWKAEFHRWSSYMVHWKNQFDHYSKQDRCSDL

Liver carboxylesterase [3] = target: T3, Liver carboxylesterase (Sus scrofa, UniProt Q29550)
T3 sequence (Q29550 whole entry): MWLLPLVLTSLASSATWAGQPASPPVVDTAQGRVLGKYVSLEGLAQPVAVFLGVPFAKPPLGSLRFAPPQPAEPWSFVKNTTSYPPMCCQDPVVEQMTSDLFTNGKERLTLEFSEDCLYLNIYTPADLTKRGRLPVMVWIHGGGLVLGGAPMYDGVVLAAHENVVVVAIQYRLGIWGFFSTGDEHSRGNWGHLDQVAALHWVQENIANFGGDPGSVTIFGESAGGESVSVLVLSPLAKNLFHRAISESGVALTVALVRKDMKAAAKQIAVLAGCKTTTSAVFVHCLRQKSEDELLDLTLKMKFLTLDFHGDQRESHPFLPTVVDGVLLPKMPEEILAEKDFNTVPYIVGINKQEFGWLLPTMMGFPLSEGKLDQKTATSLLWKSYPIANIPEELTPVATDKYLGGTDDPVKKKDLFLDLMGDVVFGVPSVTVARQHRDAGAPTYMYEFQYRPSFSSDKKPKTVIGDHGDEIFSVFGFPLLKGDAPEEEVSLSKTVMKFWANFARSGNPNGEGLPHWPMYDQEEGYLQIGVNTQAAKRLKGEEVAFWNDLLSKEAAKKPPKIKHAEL
Description: Inhibition of pig liver carboxylesterase using 4-nitrophenol acetate as substrate by spectrophotometric analysis

Cholinesterase [4] = target: T1, Cholinesterase; remark: listed apart in the source
Description: Competitive inhibition of equine serum BChE using butyrylthiocholine iodide as substrate preincubated for 10 mins followed by substrate addition by Lineweaver-Burk double reciprocal kinetic plot analysis

[5] = target: Cholinesterase (Equus caballus) (UniProt P81908); assay: Non-competitive inhibition of equine serum BChE using butyrylthiocholine iodide as substrate preincubated for 10 mins followed by substrate addition by Lineweaver-Burk double reciprocal kinetic plot analysis
Chain of Cholinesterase (Equus caballus) (P81908 whole entry): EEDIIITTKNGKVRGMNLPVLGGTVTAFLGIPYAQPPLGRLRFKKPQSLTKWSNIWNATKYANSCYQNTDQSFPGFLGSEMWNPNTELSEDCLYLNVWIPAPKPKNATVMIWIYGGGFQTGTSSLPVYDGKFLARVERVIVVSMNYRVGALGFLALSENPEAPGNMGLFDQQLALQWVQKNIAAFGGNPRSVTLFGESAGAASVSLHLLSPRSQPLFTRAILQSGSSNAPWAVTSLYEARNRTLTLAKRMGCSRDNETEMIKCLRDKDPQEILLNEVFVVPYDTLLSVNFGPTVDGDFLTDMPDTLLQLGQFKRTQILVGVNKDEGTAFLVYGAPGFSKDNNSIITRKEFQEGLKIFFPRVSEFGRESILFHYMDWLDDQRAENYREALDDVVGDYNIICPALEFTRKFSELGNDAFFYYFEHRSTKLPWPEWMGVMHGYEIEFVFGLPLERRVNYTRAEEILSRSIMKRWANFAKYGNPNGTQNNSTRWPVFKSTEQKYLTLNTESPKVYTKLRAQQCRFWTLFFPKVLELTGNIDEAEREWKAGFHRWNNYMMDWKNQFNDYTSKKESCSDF

Liver carboxylesterase [6] = target: T3, Liver carboxylesterase; assay: in vitro; conditions: pig, probe 4-nitrophenol acetate
Description: Inhibition of pig liver carboxylesterase at 20 uM using 4-nitrophenol acetate as substrate by spectrophotometric analysis

Acetylcholinesterase [7] = target: T2, Acetylcholinesterase
Description: Inhibition of human erythrocyte AChE using acetylthiocholine iodide as substrate preincubated for 10 mins followed by substrate addition by Ellman's method

[8] = target: Cholinesterase (Equus caballus) (UniProt P81908); assay: Inhibition of equine serum BChE at 20 uM using butyrylthiocholine iodide as substrate preincubated for 10 mins followed by substrate addition by Ellman's method
Acetylcholinesterase [9] = target: T2, Acetylcholinesterase; remark: listed apart in the source
Description: Competitive inhibition of human serum AChE using acetylthiocholine iodide as substrate preincubated for 10 mins followed by Lineweaver-Burk double reciprocal kinetic plot analysis

Acetylcholinesterase [10] = target: T2, Acetylcholinesterase; assay: Non-competitive inhibition of human […] AChE using acetylthiocholine iodide as substrate preincubated for 10 mins followed by substrate addition by Lineweaver-Burk double reciprocal kinetic plot analysis

T1 sequence (P81908 whole entry): as above

Structure (SMILES)	IC50 (Cholinesterase [1])	inhibition (Acetylcholinesterase [2])	IC50 (Liver carboxylesterase [3])	Ki (Cholinesterase [4])	alphaKi [5]	inhibition at 20 µM (Liver carboxylesterase [6])	IC50 (Acetylcholinesterase [7])	inhibition [8]	Ki (Acetylcholinesterase [9])	alphaKi (Acetylcholinesterase [10])
C[n+]1c2ccccc2c(-c2cc(C(C)(C)C)cc(C(C)(C)C)c2O)c2ccccc21	2.74 µM	16.7%	> 20 µM	1.46 µM	4.75 µM	31.2%	> 20 µM	–	–	–
C[n+]1c2ccccc2c(-c2ccccc2)c2ccccc21	51.9 µM	–	> 20 µM	–	–	22.6%	61.3 µM	–	–	–
CN1c2ccccc2C(c2cc(C(C)(C)C)c(O)c(C(C)(C)C)c2)c2ccccc21	> 20 µM	inactive	> 20 µM	–	–	23.6%	–	10.4%	–	–
CN1c2ccccc2C(c2cccs2)c2ccccc21	> 20 µM	inactive	> 20 µM	–	–	11.1%	–	12.3%	–	–
CN1c2ccccc2C(c2ccccc2)c2ccccc21	62.1 µM	inactive	–	–	–	–	–	–	–	–
CN1c2ccccc2C(c2ccc(NC(=O)C(F)(F)F)cc2)c2ccccc21	> 20 µM	inactive	–	–	–	–	–	7.1%	–	–
C[n+]1c2ccccc2c(N)c2ccccc21	4.83 µM	–	–	–	–	–	39.5 µM	–	–	–
O=[N+]([O-])c1ccc(OP(=O)(O)Oc2ccc([N+](=O)[O-])cc2)cc1	–	inactive	–	–	–	–	–	inactive	–	–
CN1c2ccccc2C(N2CCOCC2)c2ccccc21	0.46 µM	–	> 20 µM	0.41 µM	1.17 µM	16.4%	12.3 µM	–	4.01 µM	19.6 µM
CN1c2ccccc2C(c2ccc(F)cc2)c2ccccc21	> 20 µM	inactive	–	–	–	–	–	11.1%	–	–
Cc1ccc(-c2c3ccccc3[n+](C)c3ccccc23)cc1	40.7 µM	–	> 20 µM	–	–	16.3%	41.5 µM	–	–	–
CN1c2ccccc2C(n2c3ccccc3c3ccccc32)c2ccccc21	13 µM	5.6%	–	–	–	–	> 20 µM	–	–	–
CN1c2ccccc2C(n2cnc([N+](=O)[O-])n2)c2ccccc21	1.17 µM	–	> 20 µM	–	–	10.6%	16.7 µM	–	–	–
C[n+]1c2ccccc2c(-c2c(O)ccc3ccccc23)c2ccccc21	50.8 µM	7.3%	> 20 µM	–	–	8.9%	> 20 µM	–	–	–
C[n+]1c2ccccc2c(-c2ccc(NC(=O)C(F)(F)F)cc2)c2ccccc21	> 20 µM	–	> 20 µM	–	–	7.2%	36.5 µM	7.7%	–	–
C[n+]1c2ccccc2c(-c2cccs2)c2ccccc21	58.3 µM	–	> 20 µM	–	–	6.1%	40.9 µM	–	–	–

Structure (SMILES)	IC50 (Cholinesterase [1])	inhibition (Acetylcholinesterase [2])	IC50 (Liver carboxylesterase [3])	Ki (Cholinesterase [4])	alphaKi [5]	inhibition at 20 µM (Liver carboxylesterase [6])	IC50 (Acetylcholinesterase [7])	inhibition [8]	Ki (Acetylcholinesterase [9])	alphaKi (Acetylcholinesterase [10])
CN1c2ccccc2C(n2nnc3ccccc32)c2ccccc21	1.08 µM	–	> 20 µM	0.49 µM	2.13 µM	15.3%	12.4 µM	–	6.43 µM	17.9 µM
CC(=O)Nc1ccc(C2c3ccccc3N(C)c3ccccc32)cc1	> 20 µM	inactive	> 20 µM	–	–	7.2%	–	10.8%	–	–
Cc1cc(-c2c3ccccc3[n+](C)c3ccccc23)cc(C)c1C	> 20 µM	–	–	–	–	–	60.1 µM	14.2%	–	–
CN1c2ccccc2C(c2ccc(N)cc2)c2ccccc21	66.5 µM	inactive	–	–	–	–	–	–	–	–
CN1c2ccccc2C(c2cc(C(C)(C)C)cc(C(C)(C)C)c2O)c2ccccc21	> 20 µM	inactive	–	–	–	–	–	13.4%	–	–
Cc1cc(-c2c3ccccc3[n+](C)c3ccccc23)cc(C)c1O	61.8 µM	–	–	–	–	–	49.8 µM	–	–	–
C[n+]1c2ccccc2c(-c2ccc(N)cc2)c2ccccc21	39.1 µM	–	> 20 µM	19 µM	55.4 µM	18.6%	7.62 µM	–	2.66 µM	8.95 µM
CN1c2ccccc2C(n2cncn2)c2ccccc21	0.81 µM	–	> 20 µM	0.16 µM	0.72 µM	5.4%	18.8 µM	–	3.34 µM	–
CN1c2ccccc2C(N2CCSCC2)c2ccccc21	0.84 µM	–	> 20 µM	0.35 µM	1.31 µM	5%	11.8 µM	–	3.75 µM	–
Cc1ccc(C2c3ccccc3N(C)c3ccccc32)cc1	> 20 µM	5.1%	–	–	–	–	> 20 µM	10.6%	–	–
CC(=O)Nc1ccc(-c2c3ccccc3[n+](C)c3ccccc23)cc1	35.1 µM	–	–	–	–	–	54.3 µM	–	–	–
CCCCNc1c2ccccc2[n+](C)c2ccccc12	15.7 µM	16.8%	–	–	–	–	> 20 µM	–	–	–
COc1ccc(-c2c3ccccc3[n+](C)c3ccccc23)cc1	58.5 µM	–	> 20 µM	–	–	7.8%	13.7 µM	–	–	–
CCN(CC)c1ccc(-c2c3ccccc3[n+](C)c3ccccc23)cc1	3.35 µM	–	–	0.94 µM	4.22 µM	–	25.2 µM	–	13.2 µM	28 µM
C[n+]1c2ccccc2c(-c2ccc(F)cc2)c2ccccc21	> 20 µM	–	> 20 µM	–	–	5.9%	32.3 µM	8.2%	–	–
COc1ccc(C2c3ccccc3N(C)c3ccccc32)cc1	> 20 µM	9.3%	–	–	–	–	> 20 µM	11.6%	–	–
